Measurements: patent publication US20220409510A1, “Polypeptides And Methods For Improving Skin Conditions” (Interk Peptide Therapeutics Limited, priority 2018, published 2022)

Tests used:
[1] = system: CPD formation in the skin; experiment: CPD formation in the skin of mice after acute UV-irradiation; format: in vivo, Skh:hr1 hairless mice; conditions: topical immediately after UVR, doses as Example 4; 3 hours post-UVR; vs vehicle
Method: Female Skh:hr1 hairless mice were exposed to solar simulated UV-irradiation as described above at Example 4. Immediately after irradiation mice were treated topically on the dorsal surface also as described in Example 4. Subsequently, skin was fixed at 3 hours post-UVR, and subjected to immuno-histochemical staining using the antibody directed against thymine dimers (CPD) described above at 10 μg/ml. […] In FIG. 9, dark staining in nuclei indicates the presence of thymine dimers (CPD), and the % area stained is presented. Immunohistology was quantified as per Example 4.

[2] = system: MM1418-C1 lightly pigmented melanoma cells; experiment: Melanin content of melanoma cells after UVB radiation; format: cell-based; conditions: 10 μM for 24 hours prior to 2 kJ/m2 UVB; measured 24 hours later; vs untreated UVB cells; FIG. 20
Method: The ability of the polypeptide RSKAKNPLYRRRRRRRRR to alter melanin production was examined.
In brief, MM1418-C1 lightly pigmented melanoma cells were grown in 24 well culture plates and treated with 10 μM RSKAKNPLYRRRRRRRRR (“IK-3”) for 24 hours prior to being exposed to 2 kJ/m2 UVB radiation. Controls (not treated with RSKAKNPLYRRRRRRRRR) labelled “Con” and “UVB”, respectively, were exposed to either 0 or 2 kJ/m2 UVB radiation. Cell groups were returned to the incubator for 24 hours and then the levels of melanin and protein in the cells were measured spectrophotometrically. In each experiment triplicate samples were measured. Data shown in FIG. 19 indicate the average values±SEM (μg melanin/mg cell protein) exposed to 0 or 2 kJ/m2 UVB which had been pre-treated with 0 or 10 μM of RSKAKNPLYRRRRRRRRR 24 hours prior to being exposed to UVB radiation. The t-test (2-tailed) was used to determine statistical significance, *p<0.05, ***p<0.001.

RSKAKNPLYRRRRRRRRR [IK34720, 18-residue polypeptide: … with a C-terminal polyarginine region of 8 arginines]
CPD formation in the skin (CPD nuclei) [1]: inhibits CPD formation | melanin content of cells [2]: significantly decreased melanin content
